Experimental data from publication PMC6940941, “Development of Thiazolidinedione-Based HDAC6 Inhibitors to Overcome Methamphetamine Addiction” (International Journal of Molecular Sciences, 2019).

Columns and labels:
[1] = design: method as in PMID 30597327; settings: hampered in vivo application; cited from earlier work
[2] = target: T1, HDAC1 (Homo sapiens, UniProt Q13547); assay: Enzymatic HDAC fluorogenic assay (BPS Bioscience), HDAC1; type: biochemical; settings: 37 °C, 30 min incubation
T1 construct: purchased BPS Bioscience #50061
Method: (§4) Tubastain A (Portland, OR, USA) was purchased from TCI chemicals.
(§5) Enzymatic HDAC assay was performed following manufacturer’s protocol (BPS Bioscience). Briefly, HDAC assay buffer (35 µL) was mixed with 5 µL of BSA (1 mg/mL) and 5 µL of HDAC substrate (200 µM) in 96-well black plate. […] After incubation, 50 µL of undiluted 2 × HDAC developer was added to each well. After the mixture was incubated at RT for 15 min, fluorescence intensity was measured using a microplate reader at 360 nm excitation and 460 nm emission wavelengths.

[3] = system: Ac-α-tubulin; assay: Western blot of Ac-α-tubulin / α-tubulin in SH-SY5Y cells; type: cell-based, human
Method: (§1) We further explored the precise cellular mechanism of compound 6b. Histone H3 and α-tubulin are well-known substrates of HDAC1 and HDAC6 [23, 24]. Therefore, inhibition of HDAC1 and HDAC6 enzymes promotes the accumulation of acetylated Histone H3 and α-tubulin, respectively. Therefore, SH-SY5Y cells were incubated with compound 6b at various concentrations (0, 1, 5, 10, and 20 µM) for 24 h and the expression levels of α-tubulin, Ac-α-tubulin, Histone H3, and Ac-Histone H3 were analysed by Western blot. […] The administration of 6b at relatively low concentration of 1 µM caused the acetylation of α-tubulin via inhibition of HDAC6.
We next explored the underlying molecular and biochemical mechanisms behind the morphological changes. α-Tubulin is the basic protein that constitutes the cytoskeleton and the dynamic acetylation and deacetylation of α-tubulin play an important role in the morphology of cells. […]. […] We next investigated if compound 6b reversed the loss of the acetylation caused by methamphetamine. […].
(§2) The cells were washed and lysed in ice-cold lysis buffer (23 mM Tris-HCl pH 7.6, 130 mM NaCl, 1% NP-40, 1% sodium deoxycholate, 0.1% SDS) and 30 µg of lysate per lane was separated by SDS-PAGE, followed by transferring to a PVDF membrane (Bio rad, Hercules, USA). The membrane was blocked with 5% skim milk in TBST, and then incubated with primary antibody. After being treated with goat-anti rabbit secondary antibody (Santa Cruz, CA, USA) coupled horseradish peroxidase, proteins were visualized by ECL chemiluminescence according to the instructions of the manufacturer’s instruction (GE Healthcare, Chicago, IL, USA).
(§3) Figure 2 Effect of compound 6b on the cell viability of SH-SY5Y and the acetylation status of α-tubulin and Histone H3. (A) SH-SY5Y cells were treated with the indicated concentrations of compound 6b for 24 h and the cell viability was measured using the colorimetric MTS assay. Data are presented as mean ± SD (n = 4). (B) SH-SY5Y cells were incubated with the indicated concentrations of compound 6b or Tubastatin A (Tub) for 24 h and the expression levels of α-tubulin, Ac-α-tubulin, Histone H3, and Ac-Histone H3 were analysed by Western blot. Tubastatin A was employed as a positive control and β-actin was used as a loading control. The p value was obtained by Student t-test. * p < 0.01 as compared to vehicle.
. (A) SH-SY5Y cells were incubated with the indicated concentrations of methamphetamine (METH) for 24 h and the expression levels of Ac-α-tubulin and α-tubulin were analysed by Western blot. β-actin was used as a loading control. […]

[4] = system: Ac-Histone H3; assay: Western blot of Ac-Histone H3 / Histone H3 in SH-SY5Y cells; type: cell-based, human; settings: 24 h
Method: as §1, §2, §3

[5] = system: SH-SY5Y cells; assay: Assessment of cell morphology (phase contrast microscopy); type: cell-based, human
Method: SH-SY5Y cells (1 × 10^4 cells/well) were seeded in 6-well plate, and the cells were allowed to attach for 72 h. Culture medium was then changed to fresh medium containing METH (1 mM) for pretreat 4 h. After being preincubated for 4 h, add to compound 6b (5, 10, and 20 µM) for 24 h.
Figure 3 Effect of methamphetamine (METH) and compound 6b on the cell morphology and viability of SH-SY5Y cells. (A) Effect of methamphetamine on the cell viability of SH-SY5Y. Cells were incubated with the indicated concentrations of methamphetamine (METH) for 24 h and cell viability was measured using the colorimetric MTS assay. Data are presented as mean ± SD (n = 4). (B) Bright-field images of SH-SY5Y cells. […]

[6] = target: T2, HDAC6 (Homo sapiens, UniProt Q9UBN7)
T2 sequence (Q9UBN7 1-1215): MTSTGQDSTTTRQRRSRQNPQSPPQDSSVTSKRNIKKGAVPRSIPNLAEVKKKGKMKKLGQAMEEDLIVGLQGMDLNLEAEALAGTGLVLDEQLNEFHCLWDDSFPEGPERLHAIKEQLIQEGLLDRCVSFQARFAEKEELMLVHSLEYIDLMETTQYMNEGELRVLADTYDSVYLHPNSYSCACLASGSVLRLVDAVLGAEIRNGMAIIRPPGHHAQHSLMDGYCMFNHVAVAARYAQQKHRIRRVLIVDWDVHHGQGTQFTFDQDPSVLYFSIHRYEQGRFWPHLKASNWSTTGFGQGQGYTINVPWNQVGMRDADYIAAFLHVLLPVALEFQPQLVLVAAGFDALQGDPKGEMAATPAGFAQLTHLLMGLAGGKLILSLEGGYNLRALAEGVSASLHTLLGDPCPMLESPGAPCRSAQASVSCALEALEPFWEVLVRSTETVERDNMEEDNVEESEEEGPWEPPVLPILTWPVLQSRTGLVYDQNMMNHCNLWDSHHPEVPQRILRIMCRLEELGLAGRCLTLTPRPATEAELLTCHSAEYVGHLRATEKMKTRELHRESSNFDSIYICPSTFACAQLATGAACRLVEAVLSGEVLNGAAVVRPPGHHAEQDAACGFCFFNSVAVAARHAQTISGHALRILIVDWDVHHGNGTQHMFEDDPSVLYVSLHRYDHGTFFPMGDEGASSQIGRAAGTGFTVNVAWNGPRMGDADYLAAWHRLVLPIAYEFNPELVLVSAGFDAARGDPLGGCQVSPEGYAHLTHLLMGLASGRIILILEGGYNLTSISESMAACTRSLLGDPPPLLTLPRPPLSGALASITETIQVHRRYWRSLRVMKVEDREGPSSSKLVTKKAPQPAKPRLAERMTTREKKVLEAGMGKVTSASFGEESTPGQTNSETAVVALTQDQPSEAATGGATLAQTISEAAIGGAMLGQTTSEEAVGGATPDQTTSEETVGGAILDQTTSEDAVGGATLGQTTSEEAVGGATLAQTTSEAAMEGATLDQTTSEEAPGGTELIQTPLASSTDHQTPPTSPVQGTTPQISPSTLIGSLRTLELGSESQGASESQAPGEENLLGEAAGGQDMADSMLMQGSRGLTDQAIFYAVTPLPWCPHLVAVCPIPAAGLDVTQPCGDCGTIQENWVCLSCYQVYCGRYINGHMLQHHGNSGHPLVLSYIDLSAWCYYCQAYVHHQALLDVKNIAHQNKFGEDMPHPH
Method: as §4, §5

[7] = target: T2, HDAC6; assay: Enzymatic HDAC fluorogenic assay (BPS Bioscience), HDAC6
Method: as §4, §5

[8] = system: SH-SY5Y cells; assay: Cell viability, colorimetric MTS assay; type: cell-based, human; settings: 24 h, up to 1 mM
Method: SH-SY5Y (1 × 10^3 cells/well) were seeded in 96-well plate, the medium volume was brought to 100 µL, and the cells were allowed to attach for 14 h. Various concentrations of compound 6b (1, 5, 10, 30, 50, 70, and 100 µM) and METH (0.1 and 1 mM) were then added to the wells. Cells were then incubated at 37 °C for 24 h. Cell viability was determined using the Promega Cell Titer 96 Aqueous One Solution cell proliferation assay. Absorbance at 490 nm was read on Tecan Infinite F200 Pro plate reader, and values were expressed as percent of absorbance from cells incubated in DMSO alone.
as §3, with “Tubastatin A was employed as a positive control and β-actin was used as a loading control. The p value was obtained by Student t-test. * p < 0.01 as compared to vehicle.” left out
Figure 3 Effect of methamphetamine (METH) and compound 6b on the cell morphology and viability of SH-SY5Y cells. […] Cells were incubated with the indicated concentrations of methamphetamine (METH) for 24 h and cell viability was measured using the colorimetric MTS assay. […]

[9] = SH-SY5Y, 0, 0.5, 1, 2, and 3 mM, 24 h

T1 sequence (Q13547 whole entry): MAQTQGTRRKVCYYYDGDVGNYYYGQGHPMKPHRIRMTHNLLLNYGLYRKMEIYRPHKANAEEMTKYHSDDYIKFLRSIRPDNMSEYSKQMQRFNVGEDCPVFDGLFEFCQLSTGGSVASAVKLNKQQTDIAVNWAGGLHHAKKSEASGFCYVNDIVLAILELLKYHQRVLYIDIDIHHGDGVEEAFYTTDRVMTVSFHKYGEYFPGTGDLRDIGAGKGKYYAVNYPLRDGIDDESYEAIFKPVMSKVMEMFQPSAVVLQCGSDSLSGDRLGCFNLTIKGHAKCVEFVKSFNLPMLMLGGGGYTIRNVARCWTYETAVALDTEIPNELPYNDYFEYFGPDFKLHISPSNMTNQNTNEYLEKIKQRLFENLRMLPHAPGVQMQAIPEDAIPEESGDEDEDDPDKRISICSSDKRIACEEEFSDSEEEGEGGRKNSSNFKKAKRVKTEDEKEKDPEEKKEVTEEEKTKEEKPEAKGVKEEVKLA

O=C(NO)c1ccc2c(c1)C(=O)c1ccccc1C2=O [anthraquinone-based HDAC6 inhibitor]
solubility [1]: poor solubility

O=C(NO)c1ccc(CN2C(=O)CSC2=O)cc1 [Compound 6b, 4-((2,4-Dioxothiazolidin-3-yl)methyl)-N-hydroxybenzamide]
IC50 [2]: 388 nM | acetylation of α-tubulin after METH-promoted loss of acetylation ([3]; SH-SY5Y pretreated with METH 3 mM for 4 h, then 6b (1 µM) for 24 h): significant increase | acetylation of α-tubulin ([3]; SH-SY5Y, 0, 1, 5, 10, and 20 µM, 24 h): dose-dependently induced | concentration that caused the acetylation of α-tubulin ([3]; SH-SY5Y, 24 h): 1 µM | acetylation of Histone H3 ([4]; SH-SY5Y, 0, 1, 5, 10, and 20 µM): dose-dependently induced | protein level of Histone H3 ([4]; SH-SY5Y, 0-20 µM): increases in proportion to the concentration | concentration able to promote the acetylation of Histone H3 ([4]; SH-SY5Y): 10 µM | effect on METH-induced cell morphology change ([5]; SH-SY5Y pretreated with 1 mM METH for 4 h, then 5, 10, and 20 µM for 24 h, dose-dependent): reversed effect on the cell morphology change from a rounded shape back to a spindle shape | Selectivity Index [6]: 18.5 | IC50 [7]: 21 nM

O=C(NO)c1cccc(CN2C(=O)CSC2=O)c1 [Compound 6a, 3-((2,4-Dioxothiazolidin-3-yl)methyl)-N-hydroxybenzamide]
IC50 [2]: > 50000 nM | IC50 [7]: 1960 nM

C=CCC1SC(=O)N(Cc2ccc(C(=O)NO)cc2)C1=O (centres unmarked) [Compound 8b, 4-((5-Allyl-2,4-dioxothiazolidin-3-yl)methyl)-N-hydroxybenzamide]
IC50 [2]: > 100000 nM | IC50 [7]: 1300 nM

O=C(NO)c1ccc(CN2C(=O)SC(Cc3ccccc3)C2=O)cc1 (centres unmarked) [Compound 8c, 4-((5-Benzyl-2,4-dioxothiazolidin-3-yl)methyl)-N-hydroxybenzamide]
IC50 [2]: > 100000 nM | IC50 [7]: 628 nM

CCCC1SC(=O)N(Cc2ccc(C(=O)NO)cc2)C1=O (centres unmarked) [Compound 8a, 4-((2,4-Dioxo-5-propylthiazolidin-3-yl)methyl)-N-hydroxybenzamide]
IC50 [2]: > 100000 nM | IC50 [7]: 79300 nM

CN[C@@H](C)Cc1ccccc1 [methamphetamine, Methamphetamine]
effect on cell viability [8]: no toxicity | acetylation of α-tubulin [3, 9]: dose-dependently decreased | expression level of α-tubulin [3, 9]: remained unchanged | cell morphology ([5]; SH-SY5Y, 1 mM): rounded shape with a shrunken morphology
